Results on two molecules are retold here after article PMC9086992 (Chemmedchem, 2022).

Holding throughout (type): cell-based
Assay [1] has as its system K562 leukemia cell line. The note with it: 10 μM compound, 48 h treatment, CellTiter-Blue.
Assay [2] concerns HL-60 leukemia cell line. As to the kind of experiment: cells. As to conditions: Homo sapiens, HL-60, 48 h, read-out: % inhibition HL-60.
For assay [3], the system named is MOLT-4 leukemia cell line. Put plainly: cells. The note with it: Homo sapiens, MOLT-4, 48 h, read-out: % inhibition MOLT-4.
The test system of assay [4] is CCRF-CEM leukemia cell line. As to the kind of experiment: cells. As to conditions: Homo sapiens, 48 h, read-out: % inhibition CCRF-CEM.
The test system of assay [5] is RPMI-8226 leukemia cell line. As to the kind of experiment: cells. The note with it: Homo sapiens, RPMI-8226, 48 h, read-out: % inhibition RPMI-8226.

The term inhibition denotes the relative decrease from the control value, in per cent.

`COc1cccc2c1C(=O)c1c(O)c3c(c(O)c1C2=O)C[C@@](O)(C(=O)CO)C[C@@H]3O[C@H]1C[C@H](N)[C@H](O)[C@H](C)O1` [doxorubicin]: in assay [1], the “% inhibition K562” value amounted to 78.2±4.1%. The inhibition at 10 µM in assay [2] came to 91.5 ± 0.6%; in assay [3] it was 93.2 ± 2.6%; in assay [4], 92.3 ± 1.3%; in assay [5], 84.1 ± 3.2%.

Regarding `C[C@H]1[C@H](OC(=O)CCC(=O)O)O[C@@H]2O[C@@]3(C)CC[C@H]4[C@H](C)CC[C@@H]1[C@@]24OO3` [artesunic acid, Artesunic acid], the inhibition at 10 µM in assay [2] came out at 44.3 ± 7.4%; in assay [3], 9.9 ± 4.8%; in assay [4], 9.4 ± 4%; in assay [5] it was 27.3 ± 6.1%.
